Experimental data as given in PubChem BioAssay AID1963421 (Molecular Pharmacology Branch, DTP, NCI, 2024).
Blank lines part the entries; values can stand above or below the compound they belong to.

System: 519858-162-T-J1-PDC complex spheroid growth, % test/control
Assay: Anticancer human tumor 519858-162-T-J1-PDC patient-derived colon adenocarcinoma cell line growth inhibition [Asc]
Settings: for IC50: curve of first compound; for viability, T/C: stronger effect = lower value
Description: Multicellular complex tumor spheroid response to apoptosis pathway targeting inhibitors Alrizomadlin, Pelcitoclax, and Dasminapant in combination with a variety of drugs and investigational agents in selected tumor cell lines
The MDM2 inhibitor alrizomadlin, the Bcl-2/Bcl-xL inhibitor pelcitoclax, and the IAPs inhibitor dasminapant were evaluated both individually and in combination with standard of care and investigational anticancer small molecules within a complex spheroid model of solid tumors. . Complex spheroids include a stromal component modeled by human endothelial cells (HUVEC) and fibroblasts modeled by human mesenchymal stem cells (MSCs). The concentration ranges selected for each drug and investigational agent were based upon clinically achievable concentrations if the clinical Cmax of the agent was known.
Compounds. The drugs and investigational agents: alrizomadlin (APG-115; NSC831270), pelcitoclax (APG-1252; NSC835773), dasminapant (APG-1387;NSC834197), TAK-243 (NSC785004), copanlisib (NSC809693), olaparib (NSC753686), talazoparib (NSC767125), cobimetinib (NSC 768068), eltanexor (KPT-8602, NSC 794443), abemaciclib (NSC 768073), sotorasib (NSC818433), adagrasib (NSC 831453), MRTX-1133 (NSC 836407), Iadademestat (ORY1001, NSC 806812), and RMC-4630 (NSC839698), were obtained from the NCI Developmental Therapeutics Program Chemical Repository. The FDA-approved anticancer drug set is available from the Developmental Therapeutics Program at https://dtp.cancer.gov/organization/dscb/obtaining/available plates.htm. […] The stock solutions were prepared in dimethyl sulfoxide (DMSO, Sigma-Aldrich, St. Louis, MO, cat. D2650) at 800-fold the tested concentration and stored at -70 degrees C prior to their use. All drugs and investigational agents were tested over a range starting from a high concentration at or near the clinical Cmax and decreasing in half-log increments. If the clinical Cmax for an agent had not been determined, the highest concentration tested was 10 microM.
The patient-derived cancer (PDC) cell lines include five colon adenocarcinomas: 186277-243-T-J2-PDC, 616215-338-R-J1-PDC, 439559-082-T-J2-PDC, 463943-066-T-J2-PDC, and 519858-162-T-J1-PDC; three pancreatic carcinomas: 323965-272-R-J2-PDC, 521955-158-R6-J3-PDC, and 521955-158-R2-J5-PDC; two uterine sarcomas: 327498-152-R-J2-PDC and 993429-296-R-J1-PDC; two rhabdomyosarcomas: 755483-174-R-J1-PDC and 772245-204-R-J1-PDC; two soft tissue sarcomas: 126254-015-R-J1-PDC and 494315-158-R-J1-PDC; two malignant fibrous histiocytomas: 317291-083-R-J1-PDC and 596521-263-R-J1-PDC; two breast carcinomas: 171881-019-R-J1-PDC and 885512-296-R-J2-PDC; and one ovarian carcinoma: 6556581-035-R-J-PDC were obtained from the NCI PDMR, (https://pdmr.cancer.gov). The established cell lines HSSY-2 synovial sarcoma (RRID:CVCL 8719), SYO-1 synovial sarcoma (RRID:CVCL_7146), MPNST malignant peripheral neural sheath tumor were obtained from the Sloan Kettering Institute. The following established cell lines were purchased from the American Type Culture Collection (ATCC, Manassas, VA), Sor the received from the NCI repository:, PANC-1 pancreatic carcinoma (CRL-1469, RRID:CVCL_0480), OVCAR-5 ovarian carcinoma (RRID:CVCL_1628), OVCAR-8 ovarian carcinoma (RRID:CVCL_1629), , MCF-7 breast carcinoma (CRL-12584, RRID:CVCL_0031), MDA-MB-231 breast carcinoma (CRL-12532, RRID:CVCL_0062), NCI-H1876 small cell lung carcinoma (CRL-5902, RRID:CVCL_1503), NCI-H510A small cell lung carcinoma (HTB-184, RRID:CVCL_1565), NCI-H1417 (CRL-5869, RRID:CVCL_1469), and NCI-H196 small cell lung carcinoma (CRL-5823, RRID:CVCL_1509). Dr. Peter Houghton (Greehey Children's Cancer Research Institute, University of Texas Health Science Center, San Antonio, TX) provided Rh-18 rhabdomyosarcoma (RRID:CVCL_1659). Pooled donor human umbilical vein endothelial cells (HUVEC, Lonza, cat. CC-2519) and human mesenchymal stem cells (hMSC, Lonza, cat. PT-2501) were purchased from Lonza (Walkersville, MD).
Cell Culture. […]
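Further: seven day drug exposure begun three days after spheroid seeding.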
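Wherever viability, T/C is given: 100% = DMSO vehicle wells and lower values mean less viable spheroid.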

IC50 (second compound 0.0316 µM): > 0.3 µM | IC50 (second compound 0.1 µM): > 0.3 µM | IC50 (second compound 0.316 µM): > 0.3 µM | IC50 (second compound 1 µM): > 0.3 µM | IC50 (second compound 3.16 µM): > 0.3 µM | IC50 (second compound 10 µM): > 0.3 µM
Structure (SMILES): NC(=O)C(=Cn1cnc(-c2cc(C(F)(F)F)cc(C(F)(F)F)c2)n1)c1cncnc1 + Cc1c(S(C)(=O)=O)c(-c2cc(F)cc(N3CCN(c4ccc(NS(=O)(=O)c5ccc(NC(CCN6CCC(C(=O)OCCCP(=O)(O)O)CC6)CSc6ccccc6)c(S(=O)(=O)C(F)(F)F)c5)cc4)CC3)c2)c(-c2ccc(Cl)cc2)n1C(C)C
viability, T/C (second compound 0.0316 µM, first compound 0.000949 µM): 113% | viability, T/C (second compound 0.0316 µM, first compound 0.003 µM): 101% | viability, T/C (second compound 0.0316 µM, first compound 0.00949 µM): 87.4% | viability, T/C (second compound 0.0316 µM, first compound 0.03 µM): 66% | viability, T/C (second compound 0.0316 µM, first compound 0.0949 µM): 97.8% | viability, T/C (second compound 0.0316 µM, first compound 0.3 µM): 88.3% | viability, T/C (second compound 0.1 µM, first compound 0.000949 µM): 94.2% | viability, T/C (second compound 0.1 µM, first compound 0.003 µM): 89.1% | viability, T/C (second compound 0.1 µM, first compound 0.00949 µM): 93.7% | viability, T/C (second compound 0.1 µM, first compound 0.03 µM): 78.3% | viability, T/C (second compound 0.1 µM, first compound 0.0949 µM): 59.4% | viability, T/C (second compound 0.1 µM, first compound 0.3 µM): 98.2% | viability, T/C (second compound 0.316 µM, first compound 0.000949 µM): 97.4% | viability, T/C (second compound 0.316 µM, first compound 0.003 µM): 86% | viability, T/C (second compound 0.316 µM, first compound 0.00949 µM): 90.9% | viability, T/C (second compound 0.316 µM, first compound 0.03 µM): 60.7% | viability, T/C (second compound 0.316 µM, first compound 0.0949 µM): 82.7% | viability, T/C (second compound 0.316 µM, first compound 0.3 µM): 74.9% | viability, T/C (second compound 1 µM, first compound 0.000949 µM): 86.6% | viability, T/C (second compound 1 µM, first compound 0.003 µM): 122% | viability, T/C (second compound 1 µM, first compound 0.00949 µM): 65% | viability, T/C (second compound 1 µM, first compound 0.03 µM): 83.5% | viability, T/C (second compound 1 µM, first compound 0.0949 µM): 71.6% | viability, T/C (second compound 1 µM, first compound 0.3 µM): 71.5% | viability, T/C (second compound 3.16 µM, first compound 0.000949 µM): 79.8% | viability, T/C (second compound 3.16 µM, first compound 0.003 µM): 79.2% | viability, T/C (second compound 3.16 µM, first compound 0.00949 µM): 78.8% | viability, T/C (second compound 3.16 µM, first compound 0.03 µM): 50.3% | viability, T/C (second compound 3.16 µM, first compound 0.0949 µM): 54.6% | viability, T/C (second compound 3.16 µM, first compound 0.3 µM): 79.8% | viability, T/C (second compound 10 µM, first compound 0.000949 µM): 58.9% | viability, T/C (second compound 10 µM, first compound 0.003 µM): 59.7% | viability, T/C (second compound 10 µM, first compound 0.00949 µM): 71.2% | viability, T/C (second compound 10 µM, first compound 0.03 µM): 76.3% | viability, T/C (second compound 10 µM, first compound 0.0949 µM): 72.4% | viability, T/C (second compound 10 µM, first compound 0.3 µM): 60.1%

IC50 (second compound 0.0316 µM): > 10 µM | IC50 (second compound 0.1 µM): > 10 µM | IC50 (second compound 0.316 µM): > 10 µM | IC50 (second compound 1 µM): > 10 µM | IC50 (second compound 3.16 µM): > 10 µM | IC50 (second compound 10 µM): > 10 µM
Structure (SMILES): O=C(c1cc(Cc2n[nH]c(=O)c3ccccc23)ccc1F)N1CCN(C(=O)C2CC2)CC1 + Cc1c(S(C)(=O)=O)c(-c2cc(F)cc(N3CCN(c4ccc(NS(=O)(=O)c5ccc(NC(CCN6CCC(C(=O)OCCCP(=O)(O)O)CC6)CSc6ccccc6)c(S(=O)(=O)C(F)(F)F)c5)cc4)CC3)c2)c(-c2ccc(Cl)cc2)n1C(C)C
viability, T/C (second compound 0.0316 µM, first compound 0.0316 µM): 68.1% | viability, T/C (second compound 0.0316 µM, first compound 0.1 µM): 92.3% | viability, T/C (second compound 0.0316 µM, first compound 0.316 µM): 77.4% | viability, T/C (second compound 0.0316 µM, first compound 1 µM): 104% | viability, T/C (second compound 0.0316 µM, first compound 3.16 µM): 91.5% | viability, T/C (second compound 0.0316 µM, first compound 10 µM): 68.3% | viability, T/C (second compound 0.1 µM, first compound 0.0316 µM): 92.1% | viability, T/C (second compound 0.1 µM, first compound 0.1 µM): 107% | viability, T/C (second compound 0.1 µM, first compound 0.316 µM): 102% | viability, T/C (second compound 0.1 µM, first compound 1 µM): 75.8% | viability, T/C (second compound 0.1 µM, first compound 3.16 µM): 58.7% | viability, T/C (second compound 0.1 µM, first compound 10 µM): 78.3% | viability, T/C (second compound 0.316 µM, first compound 0.0316 µM): 100% | viability, T/C (second compound 0.316 µM, first compound 0.1 µM): 129% | viability, T/C (second compound 0.316 µM, first compound 0.316 µM): 77.8% | viability, T/C (second compound 0.316 µM, first compound 1 µM): 87.2% | viability, T/C (second compound 0.316 µM, first compound 3.16 µM): 101% | viability, T/C (second compound 0.316 µM, first compound 10 µM): 62.9% | viability, T/C (second compound 1 µM, first compound 0.0316 µM): 95.4% | viability, T/C (second compound 1 µM, first compound 0.1 µM): 100% | viability, T/C (second compound 1 µM, first compound 0.316 µM): 71.6% | viability, T/C (second compound 1 µM, first compound 1 µM): 73.8% | viability, T/C (second compound 1 µM, first compound 3.16 µM): 93.1% | viability, T/C (second compound 1 µM, first compound 10 µM): 100% | viability, T/C (second compound 3.16 µM, first compound 0.0316 µM): 76.5% | viability, T/C (second compound 3.16 µM, first compound 0.1 µM): 94% | viability, T/C (second compound 3.16 µM, first compound 0.316 µM): 74.8% | viability, T/C (second compound 3.16 µM, first compound 1 µM): 84.1% | viability, T/C (second compound 3.16 µM, first compound 3.16 µM): 70.7% | viability, T/C (second compound 3.16 µM, first compound 10 µM): 86.6% | viability, T/C (second compound 10 µM, first compound 0.0316 µM): 71.6% | viability, T/C (second compound 10 µM, first compound 0.1 µM): 101% | viability, T/C (second compound 10 µM, first compound 0.316 µM): 58.2% | viability, T/C (second compound 10 µM, first compound 1 µM): 72.9% | viability, T/C (second compound 10 µM, first compound 3.16 µM): 65.2% | viability, T/C (second compound 10 µM, first compound 10 µM): 57.6%
